Measured values reported in the supplement of paper PMC8612539.
≈ marks a conversion by molar mass, not a printed value.

Tested on: Escherichia coli
Test: minimum inhibitory concentration (MIC)
Procedure: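 Broth microdilution MIC (Sensititre BOPO7F bovine plate, CLSI methods) of 19 antimicrobials against field isolates of P. multocida, M. haemolytica, H. somni (deep nasopharyngeal swabs) and E. coli, Enterococcus spp. (rectal swabs) from weaned dairy heifers. Incubation 16-24 h at 35 C. MIC is the lowest concentration preventing visible growth. Values with <= or > lie at the tested range limits. Trimethoprim-sulfamethoxazole is given as the trimethoprim component of a 1:19 mixture.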

CN1C[C@@H]2C[C@H]1CN2c1cc2c(cc1F)c(=O)c(C(=O)O)cn2C1CC1 [Danofloxacin]
Conditions | minimum inhibitory concentration [µg/mL]
isolate (source animal id): 8 | ≤ 0.12
isolate (source animal id): 9 | > 1
isolate (source animal id): 10 | ≤ 0.12
isolate (source animal id): 11 | ≤ 0.12
isolate (source animal id): 12 | > 1
isolate (source animal id): 13 | ≤ 0.12
isolate (source animal id): 14 | 0.5 (≈ 1.4 µM)
isolate (source animal id): 15 | ≤ 0.12
isolate (source animal id): 16 | ≤ 0.12
isolate (source animal id): 98 | ≤ 0.12
isolate (source animal id): 99 | ≤ 0.12
isolate (source animal id): 100 | ≤ 0.12
isolate (source animal id): 101 | ≤ 0.12
isolate (source animal id): 102 | ≤ 0.12
isolate (source animal id): 103 | ≤ 0.12
isolate (source animal id): 104 | ≤ 0.12
isolate (source animal id): 105 | ≤ 0.12
isolate (source animal id): 106 | > 1
isolate (source animal id): 107 | ≤ 0.12
isolate (source animal id): 108 | ≤ 0.12
isolate (source animal id): 109 | ≤ 0.12
isolate (source animal id): 110 | ≤ 0.12
isolate (source animal id): 111 | > 1
isolate (source animal id): 112 | ≤ 0.12
isolate (source animal id): 113 | > 1
isolate (source animal id): 114 | ≤ 0.12
isolate (source animal id): 115 | 1 (≈ 2.8 µM)
isolate (source animal id): 116 | > 1
isolate (source animal id): 117 | ≤ 0.12
isolate (source animal id): 118 | 0.5 (≈ 1.4 µM)
isolate (source animal id): 119 | > 1
isolate (source animal id): 120 | 1 (≈ 2.8 µM)
isolate (source animal id): 121 | ≤ 0.12
isolate (source animal id): 122 | ≤ 0.12
isolate (source animal id): 123 | ≤ 0.12
isolate (source animal id): 124 | > 1
isolate (source animal id): 125 | ≤ 0.12
isolate (source animal id): 126 | > 1
isolate (source animal id): 127 | ≤ 0.12
isolate (source animal id): 128 | ≤ 0.12
isolate (source animal id): 129 | 1 (≈ 2.8 µM)
isolate (source animal id): 130 | ≤ 0.12
isolate (source animal id): 131 | > 1
isolate (source animal id): 132 | 0.5 (≈ 1.4 µM)
isolate (source animal id): 133 | ≤ 0.12
isolate (source animal id): 134 | ≤ 0.12
isolate (source animal id): 135 | ≤ 0.12
isolate (source animal id): 136 | ≤ 0.12
isolate (source animal id): 137 | 1 (≈ 2.8 µM)
isolate (source animal id): 138 | > 1
isolate (source animal id): 139 | 0.25 (≈ 0.7 µM)
isolate (source animal id): 140 | ≤ 0.12
isolate (source animal id): 141 | ≤ 0.12
isolate (source animal id): 142 | ≤ 0.12
isolate (source animal id): 143 | 1 (≈ 2.8 µM)
isolate (source animal id): 144 | > 1
isolate (source animal id): 145 | ≤ 0.12
isolate (source animal id): 146 | 0.5 (≈ 1.4 µM)
isolate (source animal id): 147 | > 1
isolate (source animal id): 148 | 0.25 (≈ 0.7 µM)
isolate (source animal id): 149 | ≤ 0.12
isolate (source animal id): 150 | ≤ 0.12
isolate (source animal id): 151 | ≤ 0.12
isolate (source animal id): 152 | ≤ 0.12
isolate (source animal id): 153 | ≤ 0.12
isolate (source animal id): 154 | 0.5 (≈ 1.4 µM)
isolate (source animal id): 155 | ≤ 0.12
isolate (source animal id): 156 | 0.5 (≈ 1.4 µM)
isolate (source animal id): 157 | ≤ 0.12
isolate (source animal id): 158 | ≤ 0.12
isolate (source animal id): 159 | ≤ 0.12
isolate (source animal id): 160 | ≤ 0.12
isolate (source animal id): 161 | ≤ 0.12
isolate (source animal id): 162 | > 1
isolate (source animal id): 163 | ≤ 0.12
isolate (source animal id): 164 | ≤ 0.12
isolate (source animal id): 165 | ≤ 0.12
isolate (source animal id): 166 | ≤ 0.12
isolate (source animal id): 167 | ≤ 0.12
isolate (source animal id): 168 | ≤ 0.12
isolate (source animal id): 169 | ≤ 0.12
isolate (source animal id): 170 | ≤ 0.12
isolate (source animal id): 171 | ≤ 0.12
isolate (source animal id): 172 | ≤ 0.12
isolate (source animal id): 173 | ≤ 0.12
isolate (source animal id): 174 | ≤ 0.12
isolate (source animal id): 175 | ≤ 0.12
isolate (source animal id): 176 | ≤ 0.12
isolate (source animal id): 177 | ≤ 0.12
isolate (source animal id): 178 | ≤ 0.12
isolate (source animal id): 179 | ≤ 0.12
isolate (source animal id): 180 | ≤ 0.12
isolate (source animal id): 181 | ≤ 0.12
isolate (source animal id): 182 | ≤ 0.12
isolate (source animal id): 183 | ≤ 0.12
isolate (source animal id): 184 | ≤ 0.12
isolate (source animal id): 185 | ≤ 0.12
isolate (source animal id): 186 | ≤ 0.12
isolate (source animal id): 187 | ≤ 0.12
isolate (source animal id): 188 | > 1

CNC(C)C1CCC(N)C(OC2C(N)CC(N)C(OC3OCC(C)(O)C(NC)C3O)C2O)O1 (stereo not given) [Gentamicin]
Conditions | minimum inhibitory concentration [µg/mL]
isolate (source animal id): 8 | ≤ 1
isolate (source animal id): 9 | ≤ 1
isolate (source animal id): 10 | ≤ 1
isolate (source animal id): 11 | ≤ 1
isolate (source animal id): 12 | ≤ 1
isolate (source animal id): 13 | ≤ 1
isolate (source animal id): 14 | ≤ 1
isolate (source animal id): 15 | ≤ 1
isolate (source animal id): 16 | ≤ 1
isolate (source animal id): 98 | ≤ 1
isolate (source animal id): 99 | ≤ 1
isolate (source animal id): 100 | ≤ 1
isolate (source animal id): 101 | ≤ 1
isolate (source animal id): 102 | ≤ 1
isolate (source animal id): 103 | ≤ 1
isolate (source animal id): 104 | ≤ 1
isolate (source animal id): 105 | ≤ 1
isolate (source animal id): 106 | ≤ 1
isolate (source animal id): 107 | ≤ 1
isolate (source animal id): 108 | ≤ 1
isolate (source animal id): 109 | ≤ 1
isolate (source animal id): 110 | ≤ 1
isolate (source animal id): 111 | ≤ 1
isolate (source animal id): 112 | ≤ 1
isolate (source animal id): 113 | ≤ 1
isolate (source animal id): 114 | ≤ 1
isolate (source animal id): 115 | ≤ 1
isolate (source animal id): 116 | ≤ 1
isolate (source animal id): 117 | ≤ 1
isolate (source animal id): 118 | ≤ 1
isolate (source animal id): 119 | ≤ 1
isolate (source animal id): 120 | ≤ 1
isolate (source animal id): 121 | ≤ 1
isolate (source animal id): 122 | 8 (≈ 16.8 µM)
isolate (source animal id): 123 | ≤ 1
isolate (source animal id): 124 | 2 (≈ 4.19 µM)
isolate (source animal id): 125 | ≤ 1
isolate (source animal id): 126 | ≤ 1
isolate (source animal id): 127 | ≤ 1
isolate (source animal id): 128 | ≤ 1
isolate (source animal id): 129 | ≤ 1
isolate (source animal id): 130 | ≤ 1
isolate (source animal id): 131 | ≤ 1
isolate (source animal id): 132 | ≤ 1
isolate (source animal id): 133 | ≤ 1
isolate (source animal id): 134 | ≤ 1
isolate (source animal id): 135 | ≤ 1
isolate (source animal id): 136 | ≤ 1
isolate (source animal id): 137 | ≤ 1
isolate (source animal id): 138 | ≤ 1
isolate (source animal id): 139 | ≤ 1
isolate (source animal id): 140 | ≤ 1
isolate (source animal id): 141 | ≤ 1
isolate (source animal id): 142 | ≤ 1
isolate (source animal id): 143 | ≤ 1
isolate (source animal id): 144 | ≤ 1
isolate (source animal id): 145 | ≤ 1
isolate (source animal id): 146 | ≤ 1
isolate (source animal id): 147 | ≤ 1
isolate (source animal id): 148 | ≤ 1
isolate (source animal id): 149 | ≤ 1
isolate (source animal id): 150 | ≤ 1
isolate (source animal id): 151 | ≤ 1
isolate (source animal id): 152 | ≤ 1
isolate (source animal id): 153 | ≤ 1
isolate (source animal id): 154 | ≤ 1
isolate (source animal id): 155 | ≤ 1
isolate (source animal id): 156 | ≤ 1
isolate (source animal id): 157 | ≤ 1
isolate (source animal id): 158 | ≤ 1
isolate (source animal id): 159 | ≤ 1
isolate (source animal id): 160 | ≤ 1
isolate (source animal id): 161 | ≤ 1
isolate (source animal id): 162 | ≤ 1
isolate (source animal id): 163 | ≤ 1
isolate (source animal id): 164 | ≤ 1
isolate (source animal id): 165 | ≤ 1
isolate (source animal id): 166 | ≤ 1
isolate (source animal id): 167 | ≤ 1
isolate (source animal id): 168 | ≤ 1
isolate (source animal id): 169 | ≤ 1
isolate (source animal id): 170 | ≤ 1
isolate (source animal id): 171 | ≤ 1
isolate (source animal id): 172 | ≤ 1
isolate (source animal id): 173 | ≤ 1
isolate (source animal id): 174 | ≤ 1
isolate (source animal id): 175 | ≤ 1
isolate (source animal id): 176 | ≤ 1
isolate (source animal id): 177 | ≤ 1
isolate (source animal id): 178 | ≤ 1
isolate (source animal id): 179 | ≤ 1
isolate (source animal id): 180 | 4 (≈ 8.38 µM)
isolate (source animal id): 181 | ≤ 1
isolate (source animal id): 182 | ≤ 1
isolate (source animal id): 183 | ≤ 1
isolate (source animal id): 184 | ≤ 1
isolate (source animal id): 185 | ≤ 1
isolate (source animal id): 186 | ≤ 1
isolate (source animal id): 187 | 8 (≈ 16.8 µM)
isolate (source animal id): 188 | ≤ 1
